In patent publication US6339044B1, “N-P-Cyanoaryl nitrogen-containing heterocycles having pendent sulfur-containing groups” (Bayer Aktiengesellschaft, priority 1993, dated 2002):

Legend:
wheat [1] = test: Pre-emergence test, wheat; assay type: in vivo; details: 60 g per hectare, after three weeks, cultivated plant
Experimental: (§1) To prepare an expedient active compound preparation, 1 part by weight of active compound is mixed with the specified amount of solvent, the specified amount of emulsifier is added and the concentrate is diluted with water to the desired concentration.
Seeds of the test plants are sown in standard soil and are watered after 24 hours with the active compound preparation. The amount of water per unit area is expediently kept constant during this. The active compound concentration in the preparation is not important, only the application rate of the active compound per unit area is critical. After three weeks, the degree of damage of the plants is evaluated in % damage in comparison with the development of the untreated control. In the evaluation:
(§2) 0% denotes no effect (as untreated control)
(§3) 100% denotes total destruction

wheat [2] = test: Post-emergence test, wheat; assay type: in vivo; details: 30 g per hectare, after three weeks, cultivated plant
Experimental: as §1
(§4) Test plants which have a height of 5-15 cm are sprayed with the active compound preparation in such a way that the amounts of active compound per unit area desired in each case are applied. After three weeks, the degree of damage of the plants is evaluated in % damage in comparison with the development of the untreated control.
as §2, §3

Abutilon = test: Post-emergence test, Abutilon; assay type: in vivo; details: 30 g per hectare, after three weeks
Experimental: as §1, §4, §2, §3

Chenopodium = test: Post-emergence test, Chenopodium; assay type: in vivo; details: 30 g per hectare, after three weeks
Experimental: as §1, §4, §2, §3

Ipomoea = test: Post-emergence test, Ipomoea; assay type: in vivo; details: 30 g per hectare, after three weeks
Experimental: as §1, §4, §2, §3

Solanum = test: Post-emergence test, Solanum; assay type: in vivo; details: 30 g per hectare, after three weeks
Experimental: as §1, §4, §2, §3

Veronica = test: Post-emergence test, Veronica; assay type: in vivo; details: 30 g per hectare, after three weeks
Experimental: as §1, §4, §2, §3

[3] = test system: horseradish leaf beetle larvae Phaedon cochleariae; test: Phaedon larvae test; assay type: in vivo; details: after 3 days, active compound concentration 0.1%, cabbage leaves dipped
Experimental: Solvent: 7 parts by weight of dimethylformamide
Emulsifier: 1 part by weight of alkylaryl polyglycol ether
To produce an expedient active compound preparation, 1 part by weight of active compound is mixed with the specified amount of solvent and the specified amount of emulsifier and the concentrate is diluted with water to the desired concentration.
Cabbage leaves (Brassica oleracea) are treated by dipping them into the active compound preparation of the desired concentration and populated with horseradish leaf beetle larvae Phaedon cochleariae, as long as the leaves are still moist.
After the desired time, the destruction is determined in %. In the determination, 100% denotes that all beetle larvae have been destroyed; 0% denotes that no beetle larvae have been destroyed.

| SMILES | degree of damage of the plants in % damage, wheat (wheat [1]) [%] | degree of damage of the plants in % damage, wheat (wheat [2]) [%] | degree of damage of the plants in % damage, Abutilon (Abutilon) [%] | degree of damage of the plants in % damage, Chenopodium (Chenopodium) [%] | degree of damage of the plants in % damage, Ipomoea (Ipomoea) [%] | degree of damage of the plants in % damage, Solanum (Solanum) [%] | degree of damage of the plants in % damage, Veronica (Veronica) [%] | degree of destruction [3] [%] | melting point [°C] |
| --- | --- | --- | --- | --- | --- | --- | --- | --- | --- |
| Cn1c(C(F)(F)F)cc(=O)n(-c2cc(F)c(C#N)cc2F)c1=S [Example 3, 1-(4-cyano-2,5-difluoro-phenyl)-3,6-dihydro-2-thioxo-6-oxo-3-methyl-4-trifluoromethyl-1(2H)-pyrimidine] | 0 | 5 | 100 | 100 | 100 | 100 | 100 | 100 | – |
| CCS(=O)(=O)Nc1cc(-n2c(=O)cc(C(F)(F)F)n(C)c2=S)c(F)cc1C#N [Example 4, 1-(4-cyano-2-fluoro-5-ethylsulphonylamino-phenyl)-3,6-dihydro-2-thio-6-oxo-3-methyl-4-trifluoromethyl-1(2H)-pyrimidine] | 0 | 5 | 100 | 100 | 100 | 100 | 100 | – | – |
| CCS(=O)(=O)N(c1cc(-n2c(=O)cc(C(F)(F)F)n(C)c2=S)c(F)cc1C#N)S(C)(=O)=O [Example 32, 1-(4-cyano-2-fluoro-5-(N-ethylsulphonyl-N-methylsulphonyl-amino)-phenyl)-3,6-dihydro-2-thio-6-oxo-3-methyl-4-trifluoromethyl-1(2H)-pyrimidine] | – | – | – | – | – | – | – | – | 122 |
| CCS(=O)(=O)N(C)c1cc(-n2c(=O)cc(C(F)(F)F)n(C)c2=S)c(F)cc1C#N [Example 33, 1-(4-cyano-2-fluoro-5-(N-ethylsulphonyl-N-methyl-amino)-phenyl)-3,6-dihydro-2-thio-6-oxo-3-methyl-4-trifluoromethyl-1(2H)-pyrimidine] | – | – | – | – | – | – | – | – | 68 |
